Where a name gives a salt, the structure may show the parent alone.

With `COc1ccc2c(COCc3ccccc3)nnc(NC3CCN(Cc4ccc5ccccc5c4)CC3)c2c1.Cl.Cl`, the melting point is 284 °C.
Compound `COc1ccc(-c2nnc(NC3CCN(Cc4ccc(CO)cc4)CC3)c3cc(OC)ccc23)cc1.Cl.Cl` had a melting point of 139 °C.
The value for `COc1ccc(-c2nnc(NC3CCN(Cc4ccc(CN)cc4)CC3)c3cc(OC)ccc23)cc1.Cl.Cl.Cl` was 203 °C; that for `COc1ccc2cnnc(NC3CCN(Cc4ccc5ccccc5c4)CC3)c2c1` (as salt: HCl) (hydrate or solvate) [Compound 70, 7-methoxy-N-[1-(2-naphthylmethyl)piperidin-4-yl]-phthalazin-1-amine] was 189 °C; that for `COc1ccc(-c2nnc(N[C@H]3CCN(Cc4ccc5ccccc5c4)C3)c3cc(OC)ccc23)cc1` (as salt: HCl) (hydrate or solvate) [Compound 96, 4-(4-Methoxyphenyl)-7-methoxy-N-[(3S)-1-(naphthalen-2-ylmethyl)pyrrolidin-3-yl]phthalazin-1-amine] was 280 °C.
With `COC(=O)c1ccc(CN2CCC(Nc3nnc(-c4ccc(OC)cc4)c4ccc(OC)cc34)CC2)cc1` (as salt: HCl) (hydrate or solvate) [Compound 107, methyl {4-[(4-{[7-methoxy-4-(4-methoxyphenyl)phthalazin-1-yl]amino}piperidin-1-yl)methyl]phenyl}carboxylate], the melting point is 241 °C.
Turning to `COc1ccc(-c2nnc(NC3CCN(Cc4ccc(C#N)cc4)CC3)c3cc(OC)ccc23)cc1` (as salt: HCl) (hydrate or solvate) [Compound 108, N-[1-(4-cyanobenzyl)piperidin-4-yl)-7-methoxy-4-(4-methoxyphenyl)phthalazin-1-amine], the melting point came to 270 °C.
The compound `COc1ccc(-c2nnc(NC3CCN(Cc4ccc(C(C)=O)cc4)CC3)c3cc(OC)ccc23)cc1` (as salt: HCl) (hydrate or solvate) [Compound 121, 1-{4-[(4-{[7-methoxy-4-(4-methoxyphenyl)phthalazin-1-yl]amino}piperidin-1-yl)methyl]phenyl}ethanone] had a melting point of 241 °C.
In turn, `COc1ccc2c(CO)nnc(NC3CCN(Cc4ccc5ccccc5c4)CC3)c2c1` (as salt: HCl) (hydrate or solvate) [Compound 148, 4-Hydroxymethyl-7-methoxy-N-[1-(naphthalen-2-ylmethyl)piperidin-4-yl]phthalazin-1-amine] showed a melting point of 186 °C.
For `COc1ccc(-c2nnc(NC3CCN(Cc4ccc(C)cc4)CC3)c3cc(OC)ccc23)cc1` (as salt: HCl) [Compound 75, 7-methoxy-4-(4-methoxyphenyl)-N-[1-(4-methylbenzyl)piperidin-4-yl]phthalazin-1-amine], the melting point came out at 148 °C.
`COc1ccc(-c2nnc(NC3CC4CCC(C3)N4Cc3ccc4ccccc4c3)c3cc(OC)ccc23)cc1` (stereo not drawn) (as salt: salt) (hydrate or solvate) had a melting point of 176 °C.
In the case of `COc1ccc2c(-c3ccccc3)nnc(NC3CCN(Cc4ccc5ccccc5c4)CC3)c2c1` (as salt: salt) (hydrate or solvate) [Compound 1, 7-methoxy-N-[1-(naphthalen-2-ylmethyl)piperidin-4-yl]-4-phenylphthalazin-1-amine], the melting point came to 121 °C.
Compound `COc1ccc2c(-c3ccccc3OC)nnc(NC3CCN(Cc4ccc5ccccc5c4)CC3)c2c1` (as salt: salt) (hydrate or solvate) [Compound 2, 7-methoxy-4-(2-methoxyphenyl)-N-[1-(naphthalen-2-ylmethyl)piperidin-4-yl]phthalazin-1-amine] displayed a melting point of 158 °C.
Take `COc1ccc(-c2nnc(NC3CCN(Cc4ccc5ccccc5c4)CC3)c3cc(OC)ccc23)cc1` (as salt: salt) (hydrate or solvate) [Compound 3, 7-methoxy-4-(4-methoxyphenyl)-N-[1-(naphthalen-2-ylmethyl)piperidin-4-yl]phthalazin-1-amine]: the melting point stood at 195 °C.
The value for `COc1cccc(-c2nnc(NC3CCN(Cc4ccc5ccccc5c4)CC3)c3cc(OC)ccc23)c1` (as salt: salt) (hydrate or solvate) [Compound 5, 7-methoxy-4-(3-methoxyphenyl)-N-[1-(naphthalen-2-ylmethyl)piperidin-4-yl]phthalazin-1-amine] was 154 °C; that for `COc1cccc(-c2nnc(NC3CCN(Cc4ccccc4)CC3)c3cc(OC)ccc23)c1` (as salt: salt) (hydrate or solvate) [Compound 6, N-(1-benzylpiperidin-4-yl)-7-methoxy-4-(3-methoxyphenyl)phthalazin-1-amine] was 176 °C.
As for `COc1ccc(-c2nnc(NC3CCN(Cc4ccccc4)CC3)c3cc(OC)ccc23)cc1` (as salt: salt) (hydrate or solvate) [Compound 7, N-(1-benzylpiperidin-4-yl)-7-methoxy-4-(4-methoxyphenyl)phthalazin-1-amine], the melting point amounted to 150 °C.
`COc1ccc2c(-c3cccs3)nnc(NC3CCN(Cc4ccccc4)CC3)c2c1` (as salt: salt) (hydrate or solvate) [Compound 8, N-(1-benzylpiperidin-4-yl)-7-methoxy-4-(thiophen-2-yl)phthalazin-1-amine] registered a melting point of 115 °C.
Regarding `COc1ccc(-c2nnc(NC3CCN(Cc4ccc5ccccc5c4)CC3)c3cc(C)ccc23)cc1` (as salt: salt) (hydrate or solvate) [Compound 9, 4-(4-methoxyphenyl)-7-methyl-N-[1-(naphthalen-2-ylmethyl)piperidin-4-yl]phthalazin-1-amine], the melting point was determined as 198 °C.
In the case of `COc1ccc2c(-c3ccc(OC)c(OC)c3)nnc(NC3CCN(Cc4ccc5ccccc5c4)CC3)c2c1` (as salt: salt) (hydrate or solvate) [Compound 10, 4-(3,4-Dimethoxyphenyl)-7-methoxy-N-[1-(naphthalen-2-ylmethyl)piperidin-4-yl]phthalazin-1-amine], the melting point was determined as 131 °C.
Compound `COc1cc(OC)c2cnnc(NC3CCN(Cc4ccccc4)CC3)c2c1` (as salt: salt) (hydrate or solvate) [Compound 13, N-(1-benzylpiperidin-4-yl)-5,7-dimethoxyphthalazin-1-amine] came in with a melting point of 169 °C.
As for `COc1cc(OC)c2cnnc(NC3CCN(Cc4ccc5ccccc5c4)CC3)c2c1` (as salt: salt) (hydrate or solvate) [Compound 14, 5,7-dimethoxy-N-[1-(naphthalen-2-ylmethyl)piperidin-4-yl]phthalazin-1-amine], the melting point is 206 °C.
The compound `COc1ccc2c(-c3ccc(C)s3)nnc(NC3CCN(Cc4ccccc4)CC3)c2c1` (as salt: salt) (hydrate or solvate) [Compound 16, N-(1-benzylpiperidin-4-yl)-7-methoxy-4-(5-methylthiophen-2-yl)phthalazin-1-amine] showed a melting point of 155 °C.
The same measure for `COc1ccc(-c2nnc(NC3CCN(Cc4cccc(C#N)c4)CC3)c3cc(OC)ccc23)cc1` (as salt: salt) (hydrate or solvate) [Compound 18, N-[1-(3-cyanophenylmethyl)-piperidin-4-yl]-7-methoxy-4-(4-methoxyphenyl)phthalazin-1-amine]: 115 °C; for `CCc1nnc(NC2CCN(Cc3ccc4ccccc4c3)CC2)c2cc(OC)ccc12` (as salt: salt) (hydrate or solvate) [Compound 20, 4-Ethyl-7-methoxy-N-[1-(naphthalen-2-ylmethyl)piperidin-4-yl]phthalazin-1-amine]: 135 °C.
As for `COc1ccc2c(Cc3ccccc3)nnc(NC3CCN(Cc4ccc5ccccc5c4)CC3)c2c1` (as salt: salt) (hydrate or solvate) [Compound 21, 4-Benzyl-7-methoxy-N-[1-(naphthalen-2-ylmethyl)piperidin-4-yl]phthalazin-1-amine], the melting point worked out at 104 °C.
`CCc1nnc(NC2CCN(Cc3ccc4ccccc4c3)CC2)c2cc(OC)cc(OC)c12` (as salt: salt) (hydrate or solvate) [Compound 23, 5,7-Dimethoxy-4-ethyl-N-[1-(naphthalen-2-ylmethyl)piperidin-4-yl]phthalazin-1-amine] returned a melting point of 250 °C.
`COc1ccc(-c2nnc(NC3CCN(Cc4ccc5occc5c4)CC3)c3cc(OC)ccc23)cc1` (as salt: salt) (hydrate or solvate) [Compound 26, N-[1-(1-benzofuran-5-ylmethyl)piperidin-4-yl]-7-methoxy-4-(4-methoxyphenyl)phthalazin-1-amine] returned a melting point of 160 °C.
Regarding `COc1ccc(-c2nnc(NC3CCN(Cc4ccc(C)c(C)c4)CC3)c3cc(OC)ccc23)cc1` (as salt: salt) (hydrate or solvate) [Compound 29, N-[1-(3,4-dimethylbenzyl)piperidin-4-yl]-7-methoxy-4-(4-methoxyphenyl)phthalazin-1-amine], the melting point was 130 °C.
Take `COc1ccc(-c2nnc(NC3CCN(Cc4ccc5ncsc5c4)CC3)c3cc(OC)ccc23)cc1` (as salt: salt) (hydrate or solvate) [Compound 59, N-[1-(1,3-benzothiazol-6-ylmethyl)piperidin-4-yl]-7-methoxy-4-(4-methoxyphenyl)phthalazin-1-amine]: the melting point came to 180 °C.
`COc1ccc(-c2nnc(NC3CCN(Cc4ccc5sccc5c4)CC3)c3cc(OC)ccc23)cc1` (as salt: salt) (hydrate or solvate) [Compound 60, N-[1-(1-benzothien-5-ylmethyl)piperidin-4-yl]-7-methoxy-4-(4-methoxyphenyl)phthalazin-1-amine]: the melting point turned out to be 176 °C.
On to `COc1ccc(-c2nnc(NC3CCN(Cc4c[nH]c5ccccc45)CC3)c3cc(OC)ccc23)cc1` (as salt: salt) (hydrate or solvate) [Compound 65, N-[1-(1H-indol-3-ylmethyl)piperidin-4-yl]-7-methoxy-4-(4-methoxyphenyl)phthalazin-1-amine], for which the melting point stood at 257 °C.
`CCCCc1nnc(NC2CCN(Cc3ccc4ccccc4c3)CC2)c2cc(OC)ccc12` (as salt: salt) (hydrate or solvate) [Compound 67, 4-Butyl-7-methoxy-N-[1-(naphthalen-2-ylmethyl)piperidin-4-yl]phthalazin-1-amine]: the melting point is 101 °C.

For orientation: melting point means the temperature, or range, at which the solid turns liquid.
